# Experiments:
# [1] = test system: lung, breast cancer and malignant mesothelioma cells; design: method as in PMID 23289910, PMID 24711125; settings: with gemcitabine or pemetrexed; cited from earlier work
# [2] = test system: eIF4E1a; design: method as in PMID 15317978; settings: cited from earlier work
# [3] = test system: in vitro translation; design: method as in PMID 10387101; settings: Cai et al.; read-out: IC50 (inhibitory potency); cited from earlier work
# [4] = test system: XeIF4E1bΔN27; assay: time-synchronized fluorescence titration of cap analogue binding; design: species or system Xenopus laevis; settings: 10% glycerol
# Description: (§1) The time-synchronized fluorescence titration method, widely used to determine the affinity constants of cap–eIF4E complexes [[20,22–26]], measures the quenching of the intrinsic fluorescence of tryptophan residues due to cap binding (Fig. S2). Knowledge of the equilibrium association constant Kas enables the calculation of the free-energy changes involved in the interaction between eIF4E and ligand, according to the standard equation ΔG° = − RTlnKas.
# (§2) For human eIF4E1a and eIF4E1b and also for Xenopus eIF4E1a and its mutated forms, measurements were carried out using 0.1 μM protein in 50 mM Hepes/KOH (pH 7.2), 134.5 mM KCl, 0.5 mM EDTA and 1 mM DTT. For Xenopus eIF4E1b(ΔN27), the concentration was 0.2 μM and glycerol was added to the buffer to 10% (v/v) final concentration. […] Fluorescence of measured samples was excited at 280 nm (2.5 nm bandwidth) and detected at 337 nm or 330 nm (4 nm bandwidth), thus reducing the signal originated from the free cap analogues. Measurements were carried out on a LS-55 spectrofluorometer (Perkin Elmer Co.) using freshly prepared proteins, and the fluorescence intensities were corrected for sample dilution and the inner filter effect.
# (§3) Equilibrium association constants (Kas) were determined by fitting the theoretical dependence of fluorescence intensity on the total concentration of the cap analogue to the experimental data points, according to the equation described previously (see Ref. [22] and Fig. S2c).
# (§4) The final Kas was calculated as a weighted average of 2–6 independent titrations with the weights taken as the reciprocal of the numerical standard deviation squared. Numerical, nonlinear least-squares regression analysis was performed using Origin 6.0 (Microcal Software Inc.). Obtained association constants were used to determine the Gibbs free energy according to the standard equation ΔG° = − RTlnKas.
# [5] = molecular target: T1, X4E1a6 (E101S/K102R/S195A/M82S/T206L/T207S) (Xenopus laevis, UniProt P48597, E101S/K102R/M82S/S195A/T206L/T207S); assay: fluorescence titration, XeIF4E1a mutant; type: binding
# T1 construct: made in house; host or cells: E. coli Rosetta2(DE3)
# Description: (§5) We tested the effect on cap-binding activity of these positions in the fluorescence assay with six mutated recombinant versions of Xenopus eIF4E1a (Fig. S4). The amino acids were introduced in XeIF4E1a sequentially in the order: E101S/K102R/S195A/M82S/T206L/T207S (numbering of the XeIF4E1a sequence is shifted backward by 4 amino acids relative to XeIF4E1b). […] The biggest contribution to the weaker cap binding of XeIF4E1a, in each case about 20%, resulted from changing Glu101 to Ser and Thr206 to Leu coupled with Thr207 to Ser, with the remaining mutations having only minor effects. […] Glu101 is a solvent-accessible amino acid and is proximal to Trp98 in the S3-S4 loop. […] Attenuation of the cap-binding affinity of XeIF4E1a resulting from mutating Thr206 and Thr207 is consistent with our results mentioned above showing significant influence of C-terminal loop residues on binding phosphate and the second nucleotide.
# (§6) For human eIF4E1a and eIF4E1b and also for Xenopus eIF4E1a and its mutated forms, measurements were carried out using 0.1 μM protein in 50 mM Hepes/KOH (pH 7.2), 134.5 mM KCl, 0.5 mM EDTA and 1 mM DTT. For Xenopus eIF4E1b(ΔN27), the concentration was 0.2 μM and glycerol was added to the buffer to 10% (v/v) final concentration. […] The gradually increasing concentration of cap analogue quenches protein fluorescence without shifting the spectrum maximum, while at high concentrations, the fluorescence signal of free cap analogue dominates over the fluorescence from other solution components including free eIF4E and eIF4E in complex with cap (Fig. S2a). Fluorescence of measured samples was excited at 280 nm (2.5 nm bandwidth) and detected at 337 nm or 330 nm (4 nm bandwidth), thus reducing the signal originated from the free cap analogues. Measurements were carried out on a LS-55 spectrofluorometer (Perkin Elmer Co.) using freshly prepared proteins, and the fluorescence intensities were corrected for sample dilution and the inner filter effect.
# (§7) Equilibrium association constants (Kas) were determined by fitting the theoretical dependence of fluorescence intensity on the total concentration of the cap analogue to the experimental data points, according to the equation described previously (see Ref. [22] and Fig. S2c). […] Along with Kas and the concentration of the active protein [P0^act], other parameters such as fL and ∆f = fPact − fPL are also gained from the fit, where fL represents the fluorescence efficiency of free cap analogue and ∆f represents the difference between the fluorescence efficiencies of the apo-protein and the complex (Fig. S2c).
# as §4
# [6] = molecular target: T2, X4E1a1 (E101S) (Xenopus laevis, UniProt P48597, E101S); assay: fluorescence titration, XeIF4E1a mutant; type: binding; settings: mutant (E101S) of XeIF4E1a
# T2 construct: made in house; host or cells: E. coli Rosetta2(DE3)
# Description: as §5, §6, §7, §4
# [7] = molecular target: T3, X4E1a4 (E101S/K102R/S195A/M82S) (Xenopus laevis, UniProt P48597, E101S/K102R/M82S/S195A); assay: fluorescence titration, XeIF4E1a mutant; type: binding; settings: mutant (E101S/K102R/S195A/M82S) of XeIF4E1a
# T3 construct: made in house; host or cells: E. coli Rosetta2(DE3)
# Description: as §5, §6, §7, §4
# [8] = molecular target: T4, X4E1a2 (E101S/K102R) (Xenopus laevis, UniProt P48597, E101S/K102R); assay: fluorescence titration, XeIF4E1a mutant; type: binding; settings: mutant (E101S/K102R) of XeIF4E1a
# T4 construct: made in house; host or cells: E. coli Rosetta2(DE3)
# Description: as §5, §6, §7, §4
# [9] = molecular target: T5, X4E1a1’ (K102R) (Xenopus laevis, UniProt P48597, K102R); assay: fluorescence titration, XeIF4E1a mutant; type: binding; settings: mutant (K102R) of XeIF4E1a
# T5 construct: made in house; host or cells: E. coli Rosetta2(DE3)
# Description: as §5, §6, §7, §4
# [10] = molecular target: T6, X4E1a3 (E101S/K102R/S195A) (Xenopus laevis, UniProt P48597, E101S/K102R/S195A); assay: fluorescence titration, XeIF4E1a mutant; type: binding; settings: mutant (E101S/K102R/S195A) of XeIF4E1a
# T6 construct: made in house; host or cells: E. coli Rosetta2(DE3)
# Description: as §5, §6, §7, §4
# [11] = molecular target: T7, heIF4E1a (Homo sapiens, UniProt P06730); design: method as in PMID 17369309; settings: equilibrium association constant; buffer without glycerol; footnote b; cited from earlier work
# T7 construct: made in house; host or cells: E. coli Rosetta2(DE3)
# [12] = test system: XeIF4E1a; assay: time-synchronized fluorescence titration of cap analogue binding; design: species or system Xenopus laevis; settings: without glycerol
# Description: as §1, §2, §3, §4
# [13] = molecular target: T8, heIF4E1b (Homo sapiens, UniProt A6NMX2); assay: as above; settings: equilibrium association constant; buffer without glycerol
# T8 construct: made in house; host or cells: E. coli Rosetta2(DE3)
# T8 sequence (A6NMX2 1-242): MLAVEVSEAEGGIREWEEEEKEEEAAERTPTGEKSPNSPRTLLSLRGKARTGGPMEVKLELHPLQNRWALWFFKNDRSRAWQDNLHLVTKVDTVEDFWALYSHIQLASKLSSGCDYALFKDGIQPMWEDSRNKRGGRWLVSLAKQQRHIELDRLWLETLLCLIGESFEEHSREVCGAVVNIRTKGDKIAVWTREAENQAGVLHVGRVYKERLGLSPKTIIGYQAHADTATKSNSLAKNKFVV
# Description: as §1, §2, §3, §4
# [14] = molecular target: T9, XeIF4E1a (Xenopus laevis, UniProt P48597); assay: as above; settings: equilibrium association constant; for Kas + glycerol XeIF4E1a: 10% glycerol; for Kas − glycerol XeIF4E1a: buffer without glycerol
# T9 construct: made in house; host or cells: E. coli Rosetta2(DE3)
# Description: as §1, §2, §3, §4
# [15] = test system: heIF4E1b; assay: as above; design: species or system human; settings: without glycerol
# Description: as §1, §2, §3, §4
# [16] = molecular target: eIF4E1a; design: method as in PMID 19351181; settings: Ghosh et al.; cited from earlier work
# [17] = test system: rabbit reticulocyte lysate system (RRL); settings: cited from earlier work
# T9 sequence (P48597 whole entry): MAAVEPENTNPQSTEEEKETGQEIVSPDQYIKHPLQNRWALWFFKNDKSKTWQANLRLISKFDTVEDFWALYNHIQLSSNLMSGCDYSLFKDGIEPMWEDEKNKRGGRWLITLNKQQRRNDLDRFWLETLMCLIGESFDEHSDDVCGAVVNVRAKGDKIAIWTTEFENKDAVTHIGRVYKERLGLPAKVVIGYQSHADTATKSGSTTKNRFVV
# T1 sequence (P48597 whole entry M82S/E101S/K102R/S195A/T206L/T207S): as the sequence (P48597 whole entry) above, with M82S, E101S, K102R, S195A, T206L, T207S counted along it
# T7 sequence (P06730 whole entry): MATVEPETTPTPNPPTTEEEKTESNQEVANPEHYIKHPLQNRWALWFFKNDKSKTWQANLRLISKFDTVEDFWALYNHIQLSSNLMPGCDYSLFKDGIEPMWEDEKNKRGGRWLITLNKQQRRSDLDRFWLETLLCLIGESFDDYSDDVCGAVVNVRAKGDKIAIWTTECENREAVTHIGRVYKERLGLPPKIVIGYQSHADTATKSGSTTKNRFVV
# T2 sequence (P48597 whole entry E101S): as the sequence (P48597 whole entry) above, with E101S counted along it
# T5 sequence (P48597 whole entry K102R): as the sequence (P48597 whole entry) above, with K102R counted along it
# T4 sequence (P48597 whole entry E101S/K102R): as the sequence (P48597 whole entry) above, with E101S, K102R counted along it
# T3 sequence (P48597 whole entry M82S/E101S/K102R/S195A): as the sequence (P48597 whole entry) above, with M82S, E101S, K102R, S195A counted along it
# T6 sequence (P48597 whole entry E101S/K102R/S195A): as the sequence (P48597 whole entry) above, with E101S, K102R, S195A counted along it
compound,measurement,setting,value
Nc1nc2c(c(=O)[nH]1)[n+](Cc1ccccc1)cn2[C@@H]1O[C@H](COP(=O)(O)NCCc2c[nH]c3ccccc23)[C@@H](O)[C@H]1O [4Ei-1],effect on malignant phenotypes and chemosensitization,[1],suppresses malignant phenotypes and chemosensitizes cells
Nc1nc2c(ncn2[C@@H]2O[C@H](COP(=O)(O)OP(=O)(O)OP(=O)([O-])OP(=O)(O)OC[C@H]3O[C@@H]([n+]4cn(Cc5ccccc5)c5c(=O)[nH]c(N)nc54)[C@H](O)[C@@H]3O)[C@@H](O)[C@H]2O)c(=O)[nH]1 [bn^7GppppG],cap-binding affinity to eIF4E1a versus methylated counterpart,[2],no increase in cap-binding affinity to eIF4E1a was observed
Cn1c[n+]([C@@H]2O[C@H](COP(=O)(O)OP(=O)([O-])O)[C@@H](O)[C@H]2O)c2nc(N)[nH]c(=O)c21 [m^7GDP],IC50,[3],7.5 µM
same,Ratio Kas (X4E1a) to Kas (X4E1bΔN27),[4],2.45
same,Kas + glycerol XeIF4E1bΔN27,[4]; equilibrium association constant,2.43 ± 0.15 μM^− 1
same,Kas + glycerol X4E1a6,"[5]; 10% glycerol, Fig. 5d",3.68 ± 0.10 µM⁻¹
same,Kas X4E1a6,[5]; mutant (E101S/K102R/S195A/M82S/T206L/T207S) of XeIF4E1a,6.82 ± 0.17 µM⁻¹
same,Kas X4E1a1,[6],10.1 ± 1.2 µM⁻¹
same,Kas X4E1a4,[7],7.68 ± 0.40 µM⁻¹
same,Kas X4E1a2,[8],8.80 ± 0.16 µM⁻¹
same,Kas X4E1a1’,[9],11.09 ± 0.21 µM⁻¹
same,Kas X4E1a3,[10],8.53 ± 0.36 µM⁻¹
same,Kas − glycerol heIF4E1a,[11],17.76 ± 0.34 ^b μM^− 1
same,Ratio Kas (h4E1a) to Kas (X4E1a),[12],1.56
same,Kas − glycerol heIF4E1b,[13],7.64 ± 0.71 μM^− 1
same,Kas + glycerol XeIF4E1a,[14],5.97 ± 0.37 μM^− 1
same,Kas − glycerol XeIF4E1a,[14],11.42 ± 0.50 μM^− 1
same,Ratio Kas (h4E1a) to Kas (h4E1b),[15],2.32
Cn1c[n+]([C@@H]2O[C@H](COP(=O)(O)O)[C@@H](O)[C@H]2O)c2nc(N)[nH]c(=O)c21 [m^7GMP],IC50,[3],382 µM
same,Kas − glycerol heIF4E1b,[13],0.628 ± 0.016 μM^− 1
same,Kas + glycerol XeIF4E1a,[14],0.256 ± 0.018 μM^− 1
same,Kas − glycerol XeIF4E1a,[14],0.567 ± 0.012 μM^− 1
same,Kd,[16],7.5 µM
"COC1C(COP(=O)([O-])OP(=O)(O)OP(=O)(O)OCC2OC(n3cnc4c(=O)[nH]c(N)nc43)C(O)C2O)OC(n2c[n+](C)c3c(=O)[nH]c(N)nc32)C1O (centres unmarked) [m^7,3′OGpppG]",inhibitory potency and translational efficiency compared with m^7GpppG,[17],higher inhibitory potency and translational efficiency
Nc1nc2c(ncn2[C@@H]2O[C@H](COP(=O)(O)OP(=O)([O-])OP(=O)(O)OC[C@H]3O[C@@H]([n+]4cn(Cc5ccccc5)c5c(=O)[nH]c(N)nc54)[C@H](O)[C@@H]3O)[C@@H](O)[C@H]2O)c(=O)[nH]1 [bn^7GpppG],inhibitory potency and translational efficiency compared with m^7GpppG,[17],higher inhibitory potency and translational efficiency
same,cap-binding affinity to eIF4E1a versus methylated counterpart,[2],no increase in cap-binding affinity to eIF4E1a was observed
Nc1nc2c(c(=O)[nH]1)[n+](Cc1ccccc1)cn2[C@@H]1O[C@H](COP(=O)([O-])O)[C@@H](O)[C@H]1O [bn^7GMP],IC50,[3],113 µM
same,Kd,[16],0.8 µM
same,fold higher binding to eIF4E1a than m^7GMP,[16],10 fold
